From article PMC10058425, “Exploring pta Alternatives in the Development of Ruthenium–Arene Anticancer Compounds” (Molecules, 2023)
“And” between values parts separate entries of the source, which are not always exact repeats. Equal values may be shown once. One block for each compound: values may come before it.

How the values were obtained:
[1] = system: MCF7 (breast adenocarcinoma); experiment: MTT cell viability assay, MCF7; assay type: cell-based, Human; settings: 24 h of incubation, read-out: IC50 ± SD on MCF7
Procedure: (§1) Cell viability studies were determined by the MTT assay for complexes 1–8 toward MCF7 (breast adenocarcinoma), MDA-MB-231 (triple-negative breast adenocarcinoma), MG-63 (osteosarcoma), and HT-29 (colorectal carcinoma) after 24 h of incubation with new ruthenium compounds. Cisplatin was used as antitumor clinical reference. The three solid tumors selected for the cell viability study were chosen due to high incidence and the low efficacy of the current treatments. The two breast cancer cell lines used in this study represent two of the most relevant subtypes of breast cancer (MCF7: receptor-estrogen-positive breast cancer subtype; MDA-MB-231: triple-negative breast cancer subtype).
(§2) Human breast cancer cell lines (MCF-7 and MDA-MB-231), human bone cancer cell line (MG-63), and human colorectal cancer cell line (HT-29) were grown in Dulbecco’s modified Eagle’s medium (DMEM) containing 10% fetal bovine serum (FBS), 100 IU/mL penicillin, and 100 μg/mL streptomycin at 37 °C in 5% CO2 atmosphere. These cancer cell lines were grown in a […] until they reached 70–80% confluence. Then, the cells were subcultured using TrypLE TM. For experiments, cells were grown in multi-well plates. Dulbecco’s modified Eagle’s medium (DMEM) and TrypLE^TM were purchased from Gibco (Gaithersburg, MD, USA), and fetal bovine serum (FBS) was purchased from Internegocios (Argentina). After 24 h, the monolayers were washed with DMEM and incubated under different conditions according to the experiments. Tissue culture materials were purchased from Corning (Princeton, NJ, USA).
(§3) The 3-(4,5-dimethylthiazol-2-yl)-2,5-diphenyltetrazolium bromide (MTT) assay was performed according to Mosmann. Briefly, cells were seeded in a 96-well dish, allowed to attach for 24 h, and treated with different concentrations of complexes […] (2.5–100 µM) at 37 °C for 24 h. Afterward, the medium was changed and the cells were incubated with 0.5 mg/mL MTT under normal culture conditions for 3 h. Cell viability was marked by conversion of the tetrazolium salt MTT to a colored formazan by mitochondrial dehydrogenases. Color development was measured spectrophotometrically with a microplate reader multiskan FC (Thermo scientific) at 570 nm after cell lysis in DMSO (100 µL per well). Cell viability was plotted as the percentage of the control value.

[2] = system: MDA-MB-231 (triple-negative breast adenocarcinoma); experiment: MTT cell viability assay, MDA-MB-231; assay type: cell-based, Human; settings: for IC50: MTT, 24 h of incubation, read-out: IC50 ± SD on MDA-MB-231
Procedure: as §1, §2, §3

MG-63 (osteosarcoma) = experiment: MTT cell viability assay, MG-63; assay type: cell-based, Human; settings: 24 h of incubation, read-out: IC50 ± SD on MG-63
Procedure: as §1, §2, §3

[3] = system: HT-29 (colorectal carcinoma); experiment: MTT cell viability assay, HT-29; assay type: cell-based, Human; settings: for IC50: 24 h of incubation, read-out: IC50 ± SD on HT-29
Procedure: as §1, §2, §3

[4] = target: Glutathione S-transferase from horse liver (GST); experiment: GST inhibition assay; assay type: biochemical; settings: for Ki: Dixon plots, substrate 200, 400, 800 μM; for IC50 / GST IC50: substrate 1-chloro-2,4-dinitrobenzene, pH 6.5, 25 °C
Procedure: The activity of GST was measured according to the method described by Habig et al. (1974). Stock solutions of 1–8 (1 mg/mL) were prepared in 100% methanol (MeOH). Then, stock solutions of 1–8 and negative controls were added to the wells and progressively diluted in 100 mM sodium phosphate buffer (pH 6.5) at a final volume of 50 μL. 1-Chloro-2,4-dinitrobenzene (Sigma-Aldrich Co., St. Louis, MO, USA) was dissolved in EtOH to obtain a 50 mM solution, then diluted with 100 mM sodium phosphate buffer (pH 6.5) to a final concentration of 4 mM. This solution (50 μL) and solution of 2 mM reduced glutathione (100 μL), dissolved in the same buffer were added into the microtiter plate wells. Glutathione S-transferase from horse liver (GST; Sigma-Aldrich Co., St. Louis, MO, USA) was used as the source of enzyme and dissolved in 100 mM sodium phosphate buffer (pH 6.5). 50 μL of enzyme solution was added into wells to start the reaction. The final enzyme concentration was 0.044 U/mL. A blank reaction was performed with the appropriate dilution of MeOH. The reaction was followed spectrophotometrically at 340 nm and at 25 °C for 4 min using a Cytation 3 cell imaging multi-mode reader from BioTek (BioTek, Winooski, VT, USA). Each measurement was repeated at least three times. For determination of inhibitory constants (Ki), the kinetics were monitored using three different final substrate concentrations (200, 400, and 800 μM, respectively).

[5] = system: MCF7, MDA-MB-231, MG-63, and HT-29 cell lines; experiment: MTT cell viability assay, all cell lines tested; assay type: cell-based, Human; settings: 24 h, span over all cell lines, read-out: IC50 in all cancer cell lines tested
Procedure: as §1
Human breast cancer cell lines (MCF-7 and MDA-MB-231), human bone cancer cell line (MG-63), and human colorectal cancer cell line (HT-29) were grown in Dulbecco’s modified Eagle’s medium (DMEM) containing 10% fetal bovine serum (FBS), 100 IU/mL penicillin, and 100 μg/mL streptomycin at 37 °C in 5% CO2 atmosphere. These cancer cell lines were grown in a […] until they reached 70–80% confluence. […]
The 3-(4,5-dimethylthiazol-2-yl)-2,5-diphenyltetrazolium bromide (MTT) assay was performed according to Mosmann. […] Color development was measured spectrophotometrically with a microplate reader multiskan FC (Thermo scientific) at 570 nm after cell lysis in DMSO (100 µL per well). […]

Compound: C1=CC2=[S][Ru+]([P](Oc3ccccc3)(Oc3ccccc3)Oc3ccccc3)[O]N2C=C1.Cc1ccc(C(C)C)cc1.F[P-](F)(F)(F)(F)F [Compound 7, [(η^6-p-cym)Ru(κ^2-O,S-C5H4NOS)(P(OPh)3)]PF6]
IC50 [1]: 33.7 ± 6.3 µM
IC50 [2]: 18 ± 1.7 µM
IC50 (MG-63 (osteosarcoma)): 28.2 ± 2.5 µM
anticancer effect on colorectal cancer cells ([3]; MTT, 24 h): did not exert anticancer effect
IC50 ([3]; MTT): > 100 µM
Ki [4]: 3.67 µM
IC50 [4]: 2.88 ± 0.9 µM

Compound: C1=CC2=[S][Ru+]([As](c3ccccc3)(c3ccccc3)c3ccccc3)[O]N2C=C1.Cc1ccc(C(C)C)cc1.F[P-](F)(F)(F)(F)F [Compound 8, [(η^6-p-cym)Ru(κ^2-O,S-C5H4NOS)(AsPh3)]PF6]
IC50 [1]: 35.3 ± 12.1 µM
IC50 [2]: 35.8 ± 11.4 µM
IC50 (MG-63 (osteosarcoma)): 50.3 ± 2.5 µM
IC50 ([3]; MTT): 40.8 ± 8.5 µM
Ki [4]: 0.74 µM
IC50 [4]: 2.15 ± 0.4 µM
IC50 [5]: 35 to 50 µM

Compound: N.N.[Cl][Pt][Cl] [Cisplatin, reference compound]
IC50 [1]: 42 ± 3.2 µM
IC50 [2]: 131 ± 18 µM
IC50 (MG-63 (osteosarcoma)): 39 ± 1.8 µM
IC50 ([3]; MTT): 180 ± 6 µM

Compound: CCO[P](OCC)(OCC)[Ru+]1[O]N2C=CC=CC2=[S]1.Cc1ccc(C(C)C)cc1.F[P-](F)(F)(F)(F)F [Compound 4, [(η^6-p-cym)Ru(κ^2-O,S-C5H4NOS)(P(OEt)3)]PF6]
IC50 [1]: 45 µM and 45.5 µM
IC50 [2]: > 100 µM
IC50 (MG-63 (osteosarcoma)): > 100 µM
IC50 ([3]; MTT): > 100 µM
IC50 [4]: 59.5 ± 0.9 µM

Compound: C1=CC2=[S][Ru+]([P](c3ccccc3)(c3ccccc3)c3ccccc3)[O]N2C=C1.Cc1ccc(C(C)C)cc1.F[P-](F)(F)(F)(F)F [Compound 6, [(η^6-p-cym)Ru(κ^2-O,S-C5H4NOS)(PPh3)]PF6]
IC50 [1]: 21.2 ± 3.2 µM
IC50 [2]: 10.8 ± 1 µM
IC50 fold lower than cisplatin on MDA-MB-231 cells ([2]; versus cisplatin): twelve-fold
IC50 (MG-63 (osteosarcoma)): 21.2 ± 1.7 µM
IC50 ([3]; MTT): 30.2 ± 1.4 µM
IC50 fold lower than cisplatin on HT-29 cells ([3]; versus cisplatin): six-fold
Ki [4]: 1.3 µM
IC50 [4]: 11.8 ± 1.1 µM

Compound: Cc1ccc(C(C)C)cc1.[Cl-].[O-]n1ccccc1=S.[Ru+2] [Compound 1, [(η^6-cymene)(Ru)(pyrithionato)Cl]]
IC50 [1]: > 100 µM
IC50 [2]: > 100 µM
IC50 (MG-63 (osteosarcoma)): > 100 µM
IC50 ([3]; MTT): > 100 µM
Ki [4]: 0.75 µM
IC50 [4]: 3.15 ± 2.5 µM

Compound: C1N2CN3CN1CP(C2)C3.Cc1ccc(C(C)C)cc1.F[P-](F)(F)(F)(F)F.[O-]n1ccccc1=S.[Ru+2] [Compound 2, [(η^6-cymene)(Ru)(pyrithionato)(pta)]PF6]
IC50 [1]: > 100 µM
IC50 [2]: > 100 µM
IC50 (MG-63 (osteosarcoma)): > 100 µM
IC50 ([3]; MTT): > 100 µM
GST IC50 [4]: / (no inhibitory activity in tested concentration range (<125 µg/mL))

IC50 [1]: > 100 µM
IC50 [2]: > 100 µM
IC50 (MG-63 (osteosarcoma)): > 100 µM
IC50 ([3]; MTT): > 100 µM
Compound: [(η^6-p-cym)Ru(κ^2-O,S-C5H4NOS)(cap)]PF6 [Compound 3]
GST IC50 [4]: / (no inhibitory activity in tested concentration range (<125 µg/mL))
